# Results published in PMC8352719 (The Journal of General Physiology, 2021).
# Where “and” joins values, the source holds several entries; their conditions need not be identical. Equal entries are not always repeated. Entries after “also recorded” stand apart in the source; their conditions may differ. Where two headings read alike, the source gives them in different places.
# Legend:
# [1] = biological target: BKα/γ1 channels (human BK channel α- and γ1-subunits (LRRC26), HEK-293T) (Homo sapiens, UniProt Q12791); assay: Macroscopic BK currents in excised inside-out patches; assay type: biochemical
# BKα channels = BKα channels (Homo sapiens, UniProt Q12791); assay: Kinetic model analysis
# BKα/γ1 channels = BKα/γ1 channels (Homo sapiens, UniProt Q12791); assay: Whole-cell recordings from HEK-293T cells overexpressing BKα/γ1 channels; assay type: cell-based
# [2] = biological target: T1, BKα channels (human BK channel α-subunit, HEK-293T) (Homo sapiens, UniProt Q12791); details: 30 µM LOP
# [3] = humans; therapeutic dose of 2–4 mg; conversion of 2 ng/ml; cited from earlier work
# BK channel = details: ref Vouga et al., 2019; cited from earlier work
# [4] = biological target: T1, BKα channels (human BK channel α-subunit, HEK-293T); assay: biochemical
# [5] = biological target: T1, BKα channels (human BK channel α-subunit, HEK-293T); details: for τ of decay phase on LOP application: perfusion limited; for V1/2: 10 μM LOP; for effective off-rate: IC50 × on-rate; for τrecovery: two-pulse protocol
# [6] = LOP levels with a therapeutic dose in humans; assay type: in vivo; details: therapeutic dose of 2–4 mg, assuming solvation in 1 liter of luminal fluid
# [7] = IC50 (Hill fit of mean Gmax versus [LOP]), nominally 0 Ca2+
# [8] = IC50 (Hill fit of mean V1/2 versus [LOP]), nominally 0 Ca2+
# [9] = nominally 0 Ca2+, 30 μM LOP, mean of individual Boltzmann fits
# [10] = nominally 0 Ca2+, −100 to −60 mV
# T1 sequence (Q12791 whole entry): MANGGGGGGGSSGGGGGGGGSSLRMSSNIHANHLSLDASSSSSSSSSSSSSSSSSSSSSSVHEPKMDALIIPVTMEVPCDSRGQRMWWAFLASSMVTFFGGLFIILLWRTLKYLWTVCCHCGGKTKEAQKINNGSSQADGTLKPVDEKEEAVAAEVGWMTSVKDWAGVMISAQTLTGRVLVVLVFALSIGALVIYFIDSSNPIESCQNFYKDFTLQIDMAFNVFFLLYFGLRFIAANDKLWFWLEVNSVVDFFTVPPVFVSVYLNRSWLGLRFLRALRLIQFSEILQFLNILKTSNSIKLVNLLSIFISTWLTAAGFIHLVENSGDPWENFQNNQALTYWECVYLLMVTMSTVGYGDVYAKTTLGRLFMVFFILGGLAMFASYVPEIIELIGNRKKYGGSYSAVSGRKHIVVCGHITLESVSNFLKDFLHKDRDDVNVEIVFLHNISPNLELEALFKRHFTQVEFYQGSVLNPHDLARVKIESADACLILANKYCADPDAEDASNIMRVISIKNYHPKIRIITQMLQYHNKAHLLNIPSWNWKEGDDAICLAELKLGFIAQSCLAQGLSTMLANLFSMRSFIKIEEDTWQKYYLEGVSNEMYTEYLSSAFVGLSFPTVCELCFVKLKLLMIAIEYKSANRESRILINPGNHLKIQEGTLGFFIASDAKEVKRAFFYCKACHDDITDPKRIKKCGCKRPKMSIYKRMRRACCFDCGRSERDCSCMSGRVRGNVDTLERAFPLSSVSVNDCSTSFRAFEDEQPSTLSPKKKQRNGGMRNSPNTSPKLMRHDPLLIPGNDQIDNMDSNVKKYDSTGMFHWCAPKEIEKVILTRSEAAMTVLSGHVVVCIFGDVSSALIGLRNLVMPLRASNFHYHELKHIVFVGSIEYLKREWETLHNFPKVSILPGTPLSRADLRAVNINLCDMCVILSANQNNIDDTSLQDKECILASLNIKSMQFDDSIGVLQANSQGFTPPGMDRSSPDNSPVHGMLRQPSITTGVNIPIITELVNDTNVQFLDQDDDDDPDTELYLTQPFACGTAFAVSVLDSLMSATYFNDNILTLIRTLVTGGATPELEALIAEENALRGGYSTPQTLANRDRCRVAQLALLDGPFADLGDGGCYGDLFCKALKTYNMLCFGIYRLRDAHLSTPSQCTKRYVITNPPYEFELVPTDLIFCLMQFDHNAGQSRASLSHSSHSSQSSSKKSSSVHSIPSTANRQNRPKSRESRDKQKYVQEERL
# Chain of BKα/γ1 channels (Q12791 whole entry): as above
# Chain of BKα/γ1 channels (Q2I0M4 27-334 partner): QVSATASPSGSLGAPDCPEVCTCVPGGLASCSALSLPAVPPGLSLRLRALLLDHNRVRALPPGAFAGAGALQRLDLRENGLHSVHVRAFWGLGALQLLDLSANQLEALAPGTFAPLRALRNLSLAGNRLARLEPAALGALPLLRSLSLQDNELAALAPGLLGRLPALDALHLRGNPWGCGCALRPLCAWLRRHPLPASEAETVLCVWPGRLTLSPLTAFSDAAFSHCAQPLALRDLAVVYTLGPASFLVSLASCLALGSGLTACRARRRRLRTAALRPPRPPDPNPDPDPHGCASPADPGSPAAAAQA
# Chain of BKα channels (Q12791 whole entry): as the sequence (Q12791 whole entry) above
# Chain of BKα/γ1 channels (human BK channel α- and γ1-subunits (LRRC26), HEK-293T) (Q12791 whole entry): as above
# Chain of BKα/γ1 channels (human BK channel α- and γ1-subunits (LRRC26), HEK-293T) (Q2I0M4 27-334 partner): as the sequence (Q2I0M4 27-334 partner) above
compound,measurement,setting,value
"CN(C)C(=O)C(CCN1CCC(O)(c2ccc(Cl)cc2)CC1)(c1ccccc1)c1ccccc1 [LOP, 4-[4-(4-chlorophenyl)-4-hydroxypiperidin-1-yl]-N,N-dimethyl-2,2-diphenylbutanamide]",IC50,[1]; [7],2130 ± 300 nM
same,IC50,[1]; [8],1500 ± 1700 nM
same,IC50,"[1]; IC50, nominally 0 Ca2+, Vm 0 mV, Hill fit of normalized G vs [LOP]",11300 ± 3500 nM
same,"A (Eq. 4, IC50 versus voltage)",[1]; nominally 0 Ca2+,7.6
same,mean zδ value of G-V relations versus [LOP],[1]; nominally 0 Ca2+,1.2 e0
same,min V1/2 (Hill fit of mean V1/2 versus [LOP]),[1]; nominally 0 Ca2+,−15 ± 11 mV
same,nH (Hill fit of mean Gmax versus [LOP]),[1]; nominally 0 Ca2+,0.74 ± 0.06
same,nH (Hill fit of mean V1/2 versus [LOP]),[1]; nominally 0 Ca2+,0.72 ± 0.4
same,Gmax,[1]; [9],0.12 ± 0.04
same,V1/2,[1]; [9],−11 ± 5 mV
same,KLOP in the open state,BKα channels,1.6 µM
same,KLOP (dissociation constant for LOP binding),"BKα channels; Sch 2, closed state, global fit, nominally 0 and 88 μM Ca2+",53.4 µM
same,"H (allosteric constant, LOP binding vs closed-open equilibrium)","BKα channels; Sch 2, fold difference in LOP affinity between closed and open states",34.4
same,W (coupling between LOP binding and CSD activation),BKα channels; Sch 5,1.09
same,current recovery after washout of LOP (of predrug amplitude),"BKα/γ1 channels; 10 µM LOP, extracellular bath",~80%
same,mean fractional whole-cell current at equilibrium,"BKα/γ1 channels; bath application of 10 µM LOP, pulses to 100 mV",0.39 ± 0.06
same,slowing versus cytosolic application to excised inside-out patches,BKα/γ1 channels; extracellular bath-applied LOP,~20 times
same,mean time constant for inhibition to reach equilibrium,BKα/γ1 channels; extracellular bath-applied LOP (10 µM),2.8 ± 0.4 min
same,τ of exponential fit (a),"BKα/γ1 channels; representative experiment Fig. 5 A, first application of 10 µM LOP at t = 5 min",1.9 min
same,τ of exponential fit (e),"BKα/γ1 channels; representative experiment Fig. 5 A, washout at t = 25 min",51 s
same,mean open times,"[2]; voltages up to 100 mV, nominally 0 or 88 µM Ca2+",≤ 0.44 ms
same,V1/2 of mean open time (Boltzmann fit),[2]; 88 µM Ca2+,−83 mV
same,min. open time (Boltzmann fit),[2]; 88 µM Ca2+,0.26 ms
same,zδ of mean open time (Boltzmann fit),[2]; 88 µM Ca2+,1.6 e0
same,effective inhibition rate,"[2]; 88 µM Ca2+, 1/0.43 ms","2,326 s^−1"
same,mean open time,"[2]; 88 µM Ca2+, +50 mV",0.37 ± 0.044 ms
same,maximum open time (Boltzmann fit),"[2]; 88 µM Ca2+, depolarized voltages",0.43 ± 0.03 ms and 0.43 ms
same,mean open time,"[2]; 88 µM Ca2+, −50 mV",0.44 ± 0.026 ms
same,Po,"[2]; 88 µM Ca2+, −90 mV",0.00728 ± 0.0010
same,inhibition of Po,"[2]; 88 µM Ca2+, −90 mV",2.7 fold
same,mean open time,"[2]; 88 µM Ca2+, −90 mV",0.32 ± 0.03 ms
same,Po,"[2]; 88 µM Ca2+, −160 to −130 mV",0.0037 ± 0.0003
same,mean open time,"[2]; 88 µM Ca2+, −160 to −130 mV",0.26 ± 0.004 ms
same,effective inhibition rate,"[2]; nominally 0 Ca2+, 1/0.39 ms","2,564 s^−1"
same,Po,"[2]; nominally 0 Ca2+, +60 mV",1.3 ± 0.6 × 10^−4
same,inhibition of Po,"[2]; nominally 0 Ca2+, +60 mV",3.7 fold
same,mean open time,"[2]; nominally 0 Ca2+, +60 mV",0.32 ± 0.03 ms
same,Po,"[2]; nominally 0 Ca2+, +80 mV",5.4 ± 1.3 × 10^−4
same,inhibition of Po,"[2]; nominally 0 Ca2+, +80 mV",3.5 fold
same,mean open time,"[2]; nominally 0 Ca2+, +80 mV",0.38 ± 0.008 ms
same,extrapolated maximum open time (Boltzmann fit),"[2]; nominally 0 Ca2+, depolarized voltages",0.39 ± 0.04 ms
same,mean Po,[2]; [10],1.7 ± 0.2 × 10^−6
same,mean open time,[2]; [10],0.18 ± 0.009 ms
same,plasma levels of LOP,[3],~4 nM
same,inhibition of BK channel–mediated thallium flux,BK channel,potent inhibitor
same,IC50,"[4]; IC50 (Hill fit of mean Gmax versus [LOP]), 88 µM Ca2+",1060 nM and 1100 nM
same,IC50,[4]; [7],1400 nM and 1410 nM
same,IC50,"[4]; IC50 (Hill fit of mean V1/2 versus [LOP]), 88 µM Ca2+",310 ± 300 nM
same,IC50,[4]; [8],550 nM
same,IC50,"[4]; IC50(∞), asymptotic IC50 at very depolarized voltages (Eq. 4), 88 µM Ca2+",870 nM
same,IC50,"[4]; IC50(∞), asymptotic IC50 at very depolarized voltages (Eq. 4), nominally 0 Ca2+",2200 nM
same,IC50,"[4]; IC50, 88 μM Ca2+, Vm 50 mV, Hill fit of normalized G vs [LOP]",~940 nM
same,IC50,"[4]; extrapolated IC50, 88 µM Ca2+, 90 mV",710 nM
same,IC50,"[4]; half-maximal inhibitory concentration (IC50) for open channels, voltage-activated BK current, wide range of cytosolic [Ca2+]",~1000 nM
same,mean fractional current,"[5]; 3 µM LOP cytosolic with 3 µM extracellular LOP (pipette), 88 µM Ca2+",0.361 ± 0.013
same,mean fractional current,"[5]; 3 µM LOP cytosolic without extracellular LOP, 88 µM Ca2+",0.292 ± 0.033
same,effect of extracellular LOP alone on BK current,"[5]; 3 µM LOP in pipette solution, 88 µM Ca2+, several minutes",little apparent effect; also recorded: no apparent inhibition
same,decrease of normalized current,"[5]; 3 µM LOP in the pipette, 0 LOP cytosolic, after 30 min of continuous recording",5–10%
same,τ of decay phase on LOP application,"[5]; 30 µM LOP cytosolic, 0 µM Ca2+, representative experiment",8.5 s
same,τ of decay phase on LOP application,"[5]; 30 µM LOP cytosolic, 88 µM Ca2+, representative experiment",7.1 s
same,current recovery after washout of LOP (of predrug amplitude),"[5]; 30 µM LOP cytosolic, Fig. 2 A",~100%
same,time constant of LOP reaching 90% of its maximal effect,"[5]; 30 µM LOP to cytosolic side, 88 µM Ca2+, reflects solution switching",7 ± 1 s
same,"A (Eq. 4, IC50 versus voltage)",[5]; 88 µM Ca2+,0.39
same,min V1/2 (Hill fit of mean V1/2 versus [LOP]),[5]; 88 µM Ca2+,−57 ± 8 mV
same,nH (Hill fit of mean Gmax versus [LOP]),[5]; 88 µM Ca2+,0.79 ± 0.06
same,nH (Hill fit of mean V1/2 versus [LOP]),[5]; 88 µM Ca2+,0.94 ± 0.6
same,y0 (final normalized current in pulse train),"[5]; 88 μM Ca2+, 3 µM LOP, 90 mV / -60 mV duration 2 / 2 ms",0.50 ± 0.019
same,y0 (final normalized current in pulse train),"[5]; 88 μM Ca2+, 3 µM LOP, 90 mV / -60 mV duration 2 / 8 ms",0.74 ± 0.032
same,V1/2,"[5]; 88 μM Ca2+, mean of individual Boltzmann fits",−54 ± 7 mV
same,Gmax,"[5]; 88 μM Ca2+, 30 μM LOP, mean of individual Boltzmann fits",0.0763 ± 0.008
same,effective on-rate (slope of 1/τdecay versus [LOP]),"[5]; 88 µM Ca2+, 50 mV",4.3 ± 0.4 × 10^7 M^−1 s^−1 and 4.3 × 10^7 ± 0.4 × 10^7 M^−1 s^−1
same,effective off-rate,"[5]; 88 µM Ca2+, 50 mV",~40 s⁻¹
same,effective on-rate (slope of 1/τdecay versus [LOP]),"[5]; 88 µM Ca2+, 90 mV",5.8 ± 0.6 × 10^7 M^−1 s^−1 and 5.8 × 10^7 ± 0.6 × 10^7 M^−1 s^−1
same,effective off-rate,"[5]; 88 µM Ca2+, 90 mV",41 s⁻¹ and 40 s⁻¹
same,nominal effective valence of on-rates (Eq. 5),"[5]; 88 µM Ca2+, on-rates at 50 and 90 mV",0.21 ± 0.11 e0
same,τrecovery,"[5]; 88 µM Ca2+, −80 mV, 3 µM LOP",3.87 ms
same,τrecovery,"[5]; 88 µM Ca2+, −80 mV, 10 µM LOP",4.14 ms
same,mean tail current τ,"[5]; 88 µM Ca2+, −80 mV, 3 µM LOP",1.82 ± 0.14 ms
same,mean tail current τ,"[5]; 88 µM Ca2+, −80 mV, 10 µM LOP",2.05 ± 0.6 ms
same,τrecovery,"[5]; 88 µM Ca2+, −120 mV, 3 µM LOP",2.04 ms
same,τrecovery,"[5]; 88 µM Ca2+, −120 mV, 10 µM LOP",2.11 ms
same,mean tail current τ,"[5]; 88 µM Ca2+, −120 mV, 3 µM LOP",0.71 ± 0.06 ms
same,mean tail current τ,"[5]; 88 µM Ca2+, −120 mV, 10 µM LOP",0.78 ± 0.07 ms
same,current recovery following washout of cytosolic LOP,"[5]; 3 or 30 µM cytosolic LOP with 3 µM extracellular LOP, 88 µM Ca2+, Fig. 2 B",> 90%
same,"A (Eq. 4, IC50 versus voltage)",[5]; nominally 0 Ca2+,"5,500"
same,mean zδ value of G-V relations versus [LOP],[5]; nominally 0 Ca2+,1.1 e0
same,min Gmax (Hill fit of mean Gmax versus [LOP]),[5]; nominally 0 Ca2+,0.16 ± 0.04
same,min V1/2 (Hill fit of mean V1/2 versus [LOP]),[5]; nominally 0 Ca2+,162 ± 16 mV
same,nH (Hill fit of mean Gmax versus [LOP]),[5]; nominally 0 Ca2+,1.2 ± 0.13
same,nH (Hill fit of mean V1/2 versus [LOP]),[5]; nominally 0 Ca2+,0.65 ± 1.1
same,V1/2,"[5]; nominally 0 Ca2+, mean of individual Boltzmann fits",165 ± 5 mV
same,time to complete reversal of inhibition upon washout,"[5]; switch from 30 to 0 µM LOP, cytosolic side",≤ 1 min
same,τ of wash phase,"[5]; washout of 30 µM LOP, 0 µM Ca2+, representative experiment",35 s
same,apparent closing rate (1/τclosing),"[5]; −80 mV, 3 µM LOP",684 ± 57 s⁻¹
same,tail current τ (fit to mean trace),"[5]; −80 mV, 3 µM LOP",1.99 ms
same,tail current τ (representative trace),"[5]; −80 mV, 3 µM LOP",2.25 ms
same,tail current τ (fit to mean trace),"[5]; −80 mV, 10 µM LOP",1.77 ms
same,tail current τ (representative trace),"[5]; −80 mV, 10 µM LOP",1.73 ms
same,apparent closing rate (1/τclosing),"[5]; −120 mV, 3 µM LOP","1,460 ± 69 s^−1"
same,tail current τ (fit to mean trace),"[5]; −120 mV, 3 µM LOP",0.82 ms
same,tail current τ (representative trace),"[5]; −120 mV, 3 µM LOP",0.876 ms
same,tail current τ (fit to mean trace),"[5]; −120 mV, 10 µM LOP",0.85 ms
same,tail current τ (representative trace),"[5]; −120 mV, 10 µM LOP",0.694 ms
same,estimated concentration of LOP in the intestinal lumen,[6],≥ 8 µM
CC[N+](CC)(CC)CC [TEA],fractional current not blocked,BKα/γ1 channels; 1 mM extracellular TEA,0.082 ± 0.0007
same,time constant to reach equilibrium,BKα/γ1 channels; bath application of 1 mM TEA,8.4 ± 1 s
same,τ of exponential fit (c),"BKα/γ1 channels; representative experiment Fig. 5 A, back to 0 LOP/0 TEA at t = 17 min",13.2 s
same,τ of exponential fit (b),"BKα/γ1 channels; representative experiment Fig. 5 A, switch to 1 mM TEA at t = 15 min",7.3 s
